Test results reported in patent US11279079B2, “Cell electrochemical sensor based on 3D printing technology and application thereof” (Jiangnan University, priority 2020, dated 2022).

What was measured:
[1] = pigs, in vivo; cited from earlier work
[2] = system: lung adenocarcinoma epithelial cells A549; assay: Cell electrochemical sensor (3D-printed A549/carbon nanofiber/GelMA on screen-printed carbon electrode), EIS cytotoxicity and combination index evaluation; format: cell-based, human; conditions: for IC50 value measured by the EIS method: A549 cell sensor of example 1, 24 hours toxin stimulation, single toxin or combined effect; for impedance value of the cell sensor with increasing dose: concentration range of 0.1-5 μg/mL, 24 hours
Protocol: In an embodiment of the disclosure, the cell sensor needs to be incubated before application, and specific operations comprise: dropping a DMEM cell culture medium at a working electrode of a screen-printed carbon electrode to ensure that the culture medium can cover a cell/carbon nanofiber/GelMA complex on the working electrode to provide cells with nutrients needed for growth, and then placing the working electrode in an incubator with the carbon dioxide concentration of 5% and the humidity of 95% for incubation at 37° C. for 6-12 hours; after incubation, removing the original culture medium on the working electrode, diluting toxin standard substances with the DMEM cell culture medium into gradient concentration solutions, dropping the gradient concentration solutions on the working electrode printed with cells, and then carrying out electrochemical detection after placing the working electrode in the incubator for effect for 24 hours.
In an embodiment of the disclosure, the method uses a modified screen-printed carbon electrode as a sensing interface, a PET material is used as a substrate, the working electrode is composed of carbon, the reference electrode is composed of silver/silver chloride, the counter electrode is composed of carbon, electrochemical detection adopts electrochemical impedance spectroscopy (EIS) to test electrical signal changes of cells stimulated by toxins, the initial potential is 0.2 V, and the frequency range is 1 Hz-10^5 Hz.
In an embodiment of the disclosure, the electrochemical AC impedance method (EIS) measures the signals obtained by the electrochemical sensor stimulated by different concentrations of toxins, the impedance value is calculated by fitting the equivalent circuit with Zview software, the cell viability inhibition rates of different concentrations of toxins are calculated, and the calculation method is as follows: […]
(1) Drug stimulation: An original culture medium on a working electrode is removed, toxin standard substances are diluted with a DMEM cell culture medium into gradient concentration solutions, and then 150 μL of DON toxin solutions in the concentration range of 0.1, 0.2, 0.5, 1, 2 and 5 μg/mL, 150 μL of 15-ADON toxin solutions in the concentration range of 0.1, 0.2, 0.5, 1, 2 and 5 μg/mL and 150 μL of DON+15-ADON toxin solutions in the concentration range of 0.1+0.1, 0.2+0.2, 0.5+0.5, 1+1, 2+2 and 5+5 μg/mL are taken and dropped on the working electrode printed with cells respectively, the working electrode is placed in an incubator for effect for 24 hours, and corresponding impedance values are measured. […]

Row | Compound | conversion into DON in blood [1] | IC50 value measured by the EIS method [2] | impedance value of the cell sensor with increasing dose [2]
1 | CC(=O)O[C@@H]1C[C@]2(C)[C@@]3(CO)[C@H](O)C(=O)C(C)=C[C@H]3O[C@H]1[C@@]21CO1 [3-ADON] | quickly converted into DON |  | 
2 | CC1=C[C@H]2O[C@@H]3[C@H](O)C[C@](C)([C@@]2(CO)[C@H](O)C1=O)[C@]31CO1 [DON, deoxynivalenol] |  | 0.9281 µg/mL | gradually reduced
3 | CC(=O)OC[C@]12[C@H](O)C(=O)C(C)=C[C@H]1O[C@@H]1[C@H](O)C[C@@]2(C)[C@]12CO2 [15-ADON, 15-acetyl-deoxynivalenol] |  | 1.2560 µg/mL | gradually reduced
